Assay results published in patent publication US20170327598A1, “SINGLE DOMAIN ANTIBODIES DIRECTED AGAINST INTRACELLULAR ANTIGENS” (SINGH MOLECULAR MEDICINE, LLC, priority 2014, published 2017).
Several values for one entry are separate records, joined by “and”; a condition that tells them apart may be missing. Equal entries are not always repeated. Where two headings read alike, the source gives them in different places.

What was measured:
PANC-1 cells [1] = test: MTT proliferation assay, PANC-1; assay type: cell-based, human; conditions: for Mean Absorbance (570 nM) ± S.E.: single experiments 1-3, listed as B.VHH13
DU145 cells = test: MTT proliferation assay, DU145; assay type: cell-based, human; set-up: Mean Abs: unit of the concentration uncertain
MCF-7 cells = test: MTT proliferation assay, MCF-7; assay type: cell-based, human; conditions: MCF-7, 72 hours
BT474 cells = test: MTT proliferation assay, BT474; assay type: cell-based, human; conditions: BT474, 72 hours
SJSA cells = test: Anti-proliferative effect, SJSA cells; assay type: cell-based; conditions: for Absorbance ± S.E.: 72 hr
U87 mg cells = test: Anti-proliferative effect, U87 mg cells; assay type: cell-based; conditions: for Absorbance ± S.E. / % Inhibition: 72 hr
MDA-MB 231 cells = test: Internalization of sdAb, anti-His tag staining, MDA-MB 231; assay type: cell-based; conditions: 18 hours
Procedure: An anti-HIV-1 Reverse Transcriptase (RT) sdAb was used as a negative control.
The slides were incubated for 18 hours after sdAb addition. The chambers were briefly rinsed with media and fixed in ice-cold methanol for 5-10 min. The chambers were then dried and stained with a fluorescent anti-His tag antibody (1:200)(Novus Biologicals, Littleton, Colo.) for 45 min at room temperature. The slides were rinsed in PBS for 5 minutes and mounted.

human KRAS = test: Biacore 3000 protein binding, KRAS ligand immobilized (Example 22); conditions: sdAb as analyte
STAT5 = test: Biacore 3000, sdAb immobilized, STAT5 analyte (Example 23); assay type: binding
[2] = test system: STAT3 reporter, induction by interleukin-6; test: STAT3 reporter GloResponse SIE-luc2P/HEK293 cell assay, IL-6 induction; assay type: cell-based; conditions: for decrease in RLU: highest concentration;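 on all read-outs here: IL-6 added at 40 ng/mL (EC80) for roughly one day after pretreatment, luciferase luminescence read with Bio-Glo reagent, untreated +IL6 wells serve as control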
[3] = test system: translocation of Stat3 to the nucleus; test: Stat3 immunofluorescence after IL-6 treatment (HEp-2, MDA-MB-231, PANC-1); assay type: cell-based; conditions: sdAb 1:10 in media overnight, 100 ng/ml IL-6 15 min
Procedure: The cells were grown to confluence on chamber slides. […] As a negative control, no antibody was added to duplicate chambers. The slides were washed, and either serum-free media alone or 100 ng/ml recombinant human IL-6 (Peprotech, Rocky Hill, N.J.) in serum free media was added to the slides for 15 min at 37° C. The media was then removed and the chamber slides were fixed in ice cold 100% methanol for 10 min at −20° C.
Immunofluorescence assays were performed on the fixed slides. First, the slides were blocked with 3% BSA in PBS was done for one hour at room temperature. The primary antibody, Stat3(124H6) mouse monoclonal antibody (Cell Signaling Technology, Danvers, Mass.) was added to the slides at a 1:1000 dilution overnight in dark box at 4° C. The following day, the slides were washed and the secondary Alexa Fluor 488 anti-mouse IgG antibody (Cell Signaling Technology) was added at a 1:500 dilution and incubated for 1 hour at room temperature. The slides were then washed, mounted with mounting media and viewed with a fluorescence microscope.

[4] = test system: MDA-MB-231 human breast cancer xenograft; conditions: for Individual Tumor Measurements: listed as anti-STAT3 bacterial VHH13
DU145 tumor xenograft = test: DU145 xenograft study, Example 11
PANC-1 cells [5] = test: PANC-1 growth inhibition with or without Gemcitabine; conditions: SBT-100 100 μg/ml alone, 72 hours (Table 44)
[6] = 24 Hour Treatment Prior to IL6 Induction, high conc.: VHH13 55.8 μg/mL, VHH14 84.3 μg/mL, BB1608 4.16 μM, VHH69 50.5 μg/mL
[7] = 24 Hour Treatment Prior to IL6 Induction, low conc.: VHH13, VHH14, VHH69 10 μg/mL, BB1608 2 μM
[8] = 48 Hour Treatment Prior to IL6 Induction, high conc.: VHH13 55.8 μg/mL, VHH14 84.3 μg/mL, BB1608 4.16 μM, VHH69 50.5 μg/mL
[9] = 48 Hour Treatment Prior to IL6 Induction, low conc.: VHH13, VHH14, VHH69 10 μg/mL, BB1608 2 μM

Substance: Anti-STAT3 VHH13: anti-STAT3 single domain antibody, SEQ ID NO:3; bacterially produced form referred to as SBT-100
- Mean Absorbance (570 nM) ± S.E., Overall Mean (PANC-1 cells [1]; PANC-1, Day 3, 10.0 μg/ml): 0.472 ± 0.020
- Mean Absorbance (570 nM) ± S.E. (PANC-1 cells [1]; PANC-1, Day 3, 10.0 μg/ml): 0.432 ± 0.015 and 0.491 ± 0.087 and 0.493 ± 0.029
- Mean Absorbance (570 nM) ± S.E., Overall Mean (PANC-1 cells [1]; PANC-1, Day 3, 100 μg/ml): 0.214 ± 0.047
- Mean Absorbance (570 nM) ± S.E. (PANC-1 cells [1]; PANC-1, Day 3, 100 μg/ml): 0.307 ± 0.012 and 0.169 ± 0.094 and 0.166 ± 0.028
- Mean Absorbance (570 nM) ± S.E., Overall Mean (PANC-1 cells [1]; PANC-1, Day 5, 10.0 μg/ml): 0.643 ± 0.126
- Mean Absorbance (570 nM) ± S.E., Overall Mean (PANC-1 cells [1]; PANC-1, Day 5, 100 μg/ml): 0.219 ± 0.012
- Mean Absorbance (570 nM) ± S.E. (PANC-1 cells [1]; PANC-1, Day 5, 100 μg/ml): 0.243 ± 0.024 and 0.211 ± 0.006 and 0.203 ± 0.013
- Average Absorbance (DU145 cells; DU145, 50 μg): 0.98
- Average % Inhibition (DU145 cells; DU145, 50 μg (50.0 μg/ml), listed as anti-STAT3 bacterial VHH13): 31.2%
- Absorbance (DU145 cells; DU145, 50 μg, Experiments 1-3, listed as Anti-STAT3 Bacterial VHH13): 0.68 and 1.2 and 1.03
- Average Absorbance (DU145 cells; DU145, 100 μg): 0.10
- Mean Abs (DU145 cells; Table 18, DU145, 0.39 (unit uncertain)): 0.906
- Mean Abs (DU145 cells; Table 18, DU145, 3.13 (unit uncertain)): 0.783
- Mean Abs (DU145 cells; Table 18, DU145, 6.25 (unit uncertain)): 0.770
- Mean Abs (DU145 cells; Table 18, DU145, 25 (unit uncertain)): 0.359
- Mean Abs (DU145 cells; Table 18, DU145, 50 (unit uncertain)): 0.161
- Mean Abs (DU145 cells; Table 18, DU145, 100 (unit uncertain)): 0.039
- Mean Abs (DU145 cells; Table 18, DU145, 200 (unit uncertain)): 0.039
- Mean Abs (MCF-7 cells; 0.39 μg/ml): 0.818
- Mean Abs (MCF-7 cells; 3.13 μg/ml): 0.689
- Mean Abs (MCF-7 cells; 6.25 μg/ml): 0.435
- % Inhibition (MCF-7 cells; 25 μg/ml): 62.1%
- Mean Abs (MCF-7 cells; 25 μg/ml): 0.212
- % Inhibition (MCF-7 cells; 50 μg/ml): 89.9%
- Mean Abs (MCF-7 cells; 50 μg/ml): 0.057
- % Inhibition (MCF-7 cells; 100 μg/ml): 93.2%
- Mean Abs (MCF-7 cells; 100 μg/ml): 0.038
- % Inhibition (MCF-7 cells; 200 μg/ml): 92.9%
- Mean Abs (MCF-7 cells; 200 μg/ml): 0.040
- Mean Abs (BT474 cells; 0.39 μg/ml): 0.322
- Mean Abs (BT474 cells; 3.13 μg/ml): 0.446
- Mean Abs (BT474 cells; 6.25 μg/ml): 0.469
- Mean Abs (BT474 cells; 25 μg/ml): 0.256
- Mean Abs (BT474 cells; 50 μg/ml): 0.145
- Mean Abs (BT474 cells; 100 μg/ml): 0.046
- Mean Abs (BT474 cells; 200 μg/ml): 0.040
- Absorbance ± S.E. (SJSA cells; 25 μg/ml): 1.36 ± 0.09
- Absorbance ± S.E. (SJSA cells; 50 μg/ml): 0.90 ± 0.04
- Absorbance ± S.E. (SJSA cells; 100 μg/ml): 0.27 ± 0.01
- Absorbance ± S.E. (SJSA cells; 200 μg/ml): 0.26 ± 0.01
- IC50 (SJSA cells; SJSA cells): 51 µg/mL
- Absorbance ± S.E. (U87 mg cells; 25 μg/ml): 0.687 ± 0.03
- % Inhibition (U87 mg cells; 50 μg/ml): 18%
- Absorbance ± S.E. (U87 mg cells; 50 μg/ml): 0.456 ± 0.01
- % Inhibition (U87 mg cells; 100 μg/ml): 51%
- Absorbance ± S.E. (U87 mg cells; 100 μg/ml): 0.271 ± 0.02
- % Inhibition (U87 mg cells; 200 μg/ml): 62%
- Absorbance ± S.E. (U87 mg cells; 200 μg/ml): 0.211 ± 0.03
- IC50 (U87 mg cells; U87 mg cells): 65 µg/mL
- Absorbance ± S.E. (U87 mg cells; […]): 0.702 ± 0.04
- internalization, anti-His tag staining (MDA-MB 231 cells): positive cytoplasmic staining
- binding to KRAS ligand (human KRAS): bound
- binding of STAT5 (STAT5; Biacore, sdAb immobilized): bound
- Result (STAT5; sdAb immobilized (STAT5-31 440 RU, anti-KRAS 140 RU, VHH13 1000 RU), STAT5 protein analyte 500 nM): Binding
- Average RLU [2, 6]: 11498 RLU
- Average RLU with Media Blank [2, 6]: 11473 RLU
- Luminescence (RLU), single wells [2, 6]: 10992 RLU and 11445 RLU and 12058 RLU
- Average RLU [2, 7]: 175275 RLU
- Average RLU with Media Blank [2, 7]: 175249 RLU
- Luminescence (RLU), single wells [2, 7]: 164397 RLU and 169890 RLU and 191537 RLU
- Average RLU [2, 8]: 89 RLU
- Average RLU with Media Blank [2, 8]: 57 RLU
- Luminescence (RLU), single wells [2, 8]: 104 RLU and 96 RLU
- Average RLU [2, 9]: 182218 RLU
- Average RLU with Media Blank [2, 9]: 182185 RLU
- Luminescence (RLU), single wells [2, 9]: 168740 RLU and 188307 RLU and 189606 RLU
- effect on IL-6 induction of STAT3 reporter ([2]; 24 hours and 48 hours treatment prior to IL-6): Inhibition of IL-6
- decrease in RLU ([2]; 24 hours): greater than 10 fold
- decrease in RLU ([2]; 48 hours): greater than 1,000 fold
- translocation of Stat3 to the nucleus following IL-6 treatment [3]: blocks the translocation of Stat3 to the nucleus
- % mean tumor growth inhibition ([4]; 500 μg/kg bw IP QDx14): 33.64%
- tumor doubling time ([4]; 500 μg/kg bw IP QDx14): 61.06 days
- mean tumor size (±SE) ([4]; 500 μg/kg bw IP QDx14, day 14 of dosing): 118.86±15.94
- Individual Tumor Measurements ([4]; Group 2, 500 μg/kg bw IP QDx14, single animals, Day 1): 123.94 mm^3 and 85.93 mm^3 and 147.34 mm^3 and 115.91 mm^3 and 73.23 mm^3
- Tumor Measurements, group Mean ([4]; Group 2, Day 1): 102.61 mm^3
- Tumor Measurements, group Mean ([4]; Group 2, Day 6): 101.16 mm^3
- Tumor Measurements, group Mean ([4]; Group 2, Day 9): 112.44 mm^3
- Tumor Measurements, group Mean ([4]; Group 2, Day 12): 112.92 mm^3
- Tumor Measurements, group Mean ([4]; Group 2, Day 16): 118.86 mm^3
- Tumor Measurements, group Mean ([4]; Group 2, Day 20): 128.49 mm^3
- Individual Tumor Measurements ([4]; Group 2, single animals, Day 6): 114.91 mm^3 and 101.06 mm^3 and 148.72 mm^3 and 103.64 mm^3 and 82.59 mm^3
- Individual Tumor Measurements ([4]; Group 2, single animals, Day 9): 129.22 mm^3 and 112.60 mm^3 and 169.69 mm^3 and 108.37 mm^3 and 110.13 mm^3
- Individual Tumor Measurements ([4]; Group 2, single animals, Day 12): 176.04 mm^3 and 112.24 mm^3 and 185.08 mm^3 and 141.21 mm^3 and 91.22 mm^3
- Individual Tumor Measurements ([4]; Group 2, single animals, Day 16): 170.09 mm^3 and 139.56 mm^3 and 170.07 mm^3 and 144.51 mm^3
- Individual Tumor Measurements ([4]; Group 2, single animals, Day 20): 162.98 mm^3 and 96.43 mm^3 and 256.71 mm^3 and 119.42 mm^3
- % treatment/control (DU145 tumor xenograft; 5 mg/kg bw IP BIDx14): 74.8%
- tumor doubling time (DU145 tumor xenograft; 5 mg/kg bw IP BIDx14): 18.19 days
- mean tumor growth inhibition (DU145 tumor xenograft; 5 mg/kg bw IP BIDx14, end of the study): 26.6%
- mean tumor size (±SE) (DU145 tumor xenograft; 5 mg/kg bw IP BIDx14, last day of dosing (Day 14)): 364.14±51.64
- mean tumor size (±S.E.) (DU145 tumor xenograft; 5 mg/kg bw IP BIDx14, termination (day 28)): 601.83±131.51
- Absorbance (PANC-1 cells [5]): 0.333
